According to patent US7858796B2, “Chemical compounds” (Glaxo Group Limited, priority 2004, dated 2010):

Tested on: human monocyte stimulated cytokine production (TNF-α)
Experiment: Monocyte Assay (LPS-stimulated TNF-α production)
Assay type: cell-based
Conditions: human CD14+ monocytes, 200 ng/mL LPS, 24 hrs, TNF-α by ELISA
Description: Effect of IKK-β inhibition on human monocyte stimulated cytokine production was assessed as follows: Monocytes were isolated from heparinized whole blood by Ficoll gradient, followed by purification of CD14+ cells using MACS magnetic cell separation beads. Isolated monocytes were then adhered to 96-well culture plates at 1×10^6 cells/mL in RPMI 1640 10% FBS (JRH Biosciences, Lenexa Kans.) for 2 h. to further enrich the monocyte population. The media was then removed, cells washed once with RPMI 1640, and 0.125 mL RPMI 1640 10% FBS was added to the wells. Test compounds are added to the wells 30 minutes prior to stimulation with a final vehicle concentration of 0.1% DMSO. Monocytes were activated by the addition of 200 ng/mL endotoxin (LPS; E. coli serotype 026:B6) (Sigma, St. Louis, Mo.) and incubated for 24 hrs at 37 C. Cell-free supernates were analyzed by ELISA for TNF-α using Pharmingen matched pair Abs. Viability of the cells was determined by10% trypan blue exclusion.

IC50, < 10 µM:
NCCS(=O)(=O)N1CCC(c2c[nH]c3c(C(N)=O)cc(-c4ccccc4)cc23)CC1 [Example 1, 3-{1-[(2-aminoethyl)sulfonyl]-4-piperidinyl}-5-phenyl-1H-indole-7-carboxamide]
CN(C)CCS(=O)(=O)N1CCC(c2c[nH]c3c(C(N)=O)cc(-c4ccccc4)cc23)CC1 [Example 2, 3-(1-{[2-(dimethylamino)ethyl]sulfonyl}-4-piperidinyl)-5-phenyl-1H-indole-7-carboxamide]
CN(C)CCCS(=O)(=O)N1CCC(c2c[nH]c3c(C(N)=O)cc(-c4ccccc4)cc23)CC1 [Example 3, 3-(1-{[3-(dimethylamino)propyl]sulfonyl}-4-piperidinyl)-5-phenyl-1H-indole-7-carboxamide]
CN1CCN(CCCS(=O)(=O)N2CCC(c3c[nH]c4c(C(N)=O)cc(-c5ccccc5)cc34)CC2)CC1 [Example 4, 3-(1-{[3-(4-methyl-1-piperazinyl)propyl]sulfonyl}-4-piperidinyl)-5-phenyl-1H-indole-7-carboxamide]
NC(=O)c1cc(-c2ccccc2)cc2c(C3CCN(S(=O)(=O)CCCN4CCCCC4)CC3)c[nH]c12 [Example 5, 5-phenyl-3-(1-{[3-(1-piperidinyl)propyl]sulfonyl}-4-piperidinyl)-1H-indole-7-carboxamide]
NC(=O)c1cc(-c2ccccc2)cc2c(C3CCN(S(=O)(=O)CCCN4CCOCC4)CC3)c[nH]c12 [Example 6, 3-(1-{[3-(4-morpholinyl)propyl]sulfonyl}-4-piperidinyl)-5-phenyl-1H-indole-7-carboxamide]
NC(=O)c1cc(-c2ccccc2)cc2c(C3CCN(S(=O)(=O)CCCN4CCCC4)CC3)c[nH]c12 [Example 7, 5-phenyl-3-(1-{[3-(1-pyrrolidinyl)propyl]sulfonyl}-4-piperidinyl)-1H-indole-7-carboxamide]
NC(=O)c1cc(-c2ccsc2)cc2c(C3CCN(S(=O)(=O)CCCN4CCCC4)CC3)c[nH]c12 [Example 8, 3-(1-{[3-(1-pyrrolidinyl)propyl]sulfonyl}-4-piperidinyl)-5-(3-thienyl)-1H-indole-7-carboxamide]
CN(C)CCCS(=O)(=O)N1CCC(c2c[nH]c3c(C(N)=O)cc(-c4ccsc4)cc23)CC1 [Example 9, 3-(1-{[3-(dimethylamino)propyl]sulfonyl}-4-piperidinyl)-5-(3-thienyl)-1H-indole-7-carboxamide]
CN(C)CCCS(=O)(=O)N1CCC(c2c[nH]c3c(C(N)=O)cc(-c4cccs4)cc23)CC1 [Example 10, 3-(1-{[3-(dimethylamino)propyl]sulfonyl}-4-piperidinyl)-5-(2-thienyl)-1 indole-7-carboxamide]
NC(=O)c1cc(-c2cccs2)cc2c(C3CCN(S(=O)(=O)CCCN4CCCC4)CC3)c[nH]c12 [Example 11, 3-(1-{[3-(1-pyrrolidinyl)propyl]sulfonyl}-4-piperidinyl)-5-(2-thienyl)-1 indole-7-carboxamide]
CC1CCCN1CCCS(=O)(=O)N1CCC(c2c[nH]c3c(C(N)=O)cc(-c4cccs4)cc23)CC1 (stereo not shown) [Example 12, 3-(1-{[3-(2-methyl-1-pyrrolidinyl)propyl]sulfonyl}-4-piperidinyl)-5-(2-thienyl)-11 indole-7-carboxamide]
NC(=O)c1cc(-c2cccs2)cc2c(C3CCN(S(=O)(=O)CCCNC4CCCC4)CC3)c[nH]c12 [Example 13, 3-(1-{[3-(cyclopentylamino)propyl]sulfonyl}-4-piperidinyl)-5-(2-thienyl)-1H-indole-7-carboxamide]
NC(=O)c1cc(-c2cccs2)cc2c(C3CCN(S(=O)(=O)CCCN4CCC(O)CC4)CC3)c[nH]c12 [Example 14, 3-(1-{[3-(4-hydroxy-1-piperidinyl)propyl]sulfonyl}-4-piperidinyl)-5-(2-thienyl)-1-indole-7-carboxamide]
NC(=O)c1cc(-c2cccs2)cc2c(C3CCN(S(=O)(=O)CCNC4CCCC4)CC3)c[nH]c12 [Example 15, 3-(1-{[2-(cyclopentylamino)ethyl]sulfonyl}-4-piperidinyl)-5-(2-thienyl)-1H-indole-7-carboxamide]
NC(=O)c1cc(-c2ccsc2)cc2c(C3CCN(S(=O)(=O)CCN4CCCC4)CC3)c[nH]c12 [Example 16, 3-(1-{[2-(1-pyrrolidinyl)ethyl]sulfonyl}-4-piperidinyl)-5-(3-thienyl)-1H-indole-7-carboxamide]
CN(C)CCS(=O)(=O)N1CCC(c2c[nH]c3c(C(N)=O)cc(-c4ccsc4)cc23)CC1 [Example 17, 3-(1-{[2-(dimethylamino)ethyl]sulfonyl}-4-piperidinyl)-5-(3-thienyl)-1H-indole-7-carboxamide]
NC(=O)c1cc(-c2ccsc2)cc2c(C3CCN(S(=O)(=O)CCNC4CCCC4)CC3)c[nH]c12 [Example 18, 3-(1-{[2-(cyclopentylamino)ethyl]sulfonyl}-4-piperidinyl)-5-(3-thienyl)-11 indole-7-carboxamide]
NC(=O)c1cc(-c2ccsc2)cc2c(C3CCN(S(=O)(=O)CCNC4CCC(O)CC4)CC3)c[nH]c12 (stereo not shown) [Example 19, 3-[1-({2-[(4-hydroxycyclohexyl)amino]ethyl}sulfonyl)-4-piperidinyl]-5-(3-thienyl)-1H-indole-7-carboxamide]
NC(=O)c1cc(-c2ccccc2)cc2c(C3CCN(S(=O)(=O)CCO)CC3)c[nH]c12 [Example 20, 3-{1-[(2-hydroxyethyl)sulfonyl]-4-piperidinyl}-5-phenyl-1H-indole-7-carboxamide]
NC(=O)c1cc(-c2ccc(Cl)s2)cc2c(C3CCN(S(=O)(=O)CCCN4CCCC4)CC3)c[nH]c12 [Example 21, 5-(5-chloro-2-thienyl)-3-(1-{[3-(1-pyrrolidinyl)propyl]sulfonyl}-4-piperidinyl)-1H-indole-7-carboxamide]
CNCCS(=O)(=O)N1CCC(c2c[nH]c3c(C(N)=O)cc(-c4ccccc4)cc23)CC1 [Example 22, 3-(1-{[2-(methylamino)ethyl]sulfonyl}-4-piperidinyl)-5-phenyl-1H-indole-7-carboxamide]
NC(=O)c1cc(-c2ccc(CO)s2)cc2c(C3CCN(S(=O)(=O)CCCN4CCCC4)CC3)c[nH]c12 [Example 63, 5-[5-(hydroxymethyl)-2-thienyl]-3-(1-{[3-(1-pyrrolidinyl)propyl]sulfonyl}-4-piperidinyl)-1H-indole-7-carboxamide]
NC(=O)c1cc(-c2ccc(CN3CCCC3)s2)cc2c(C3CCN(S(=O)(=O)CCCN4CCCC4)CC3)c[nH]c12 [Example 64, 5-[5-(1-pyrrolidinylmethyl)-2-thienyl]-3-(1-{[3-(1-pyrrolidinyl)propyl]sulfonyl}-4-piperidinyl)-1H-indole-7-carboxamide]
CNCc1ccc(-c2cc(C(N)=O)c3[nH]cc(C4CCN(S(=O)(=O)CCCN5CCOCC5)CC4)c3c2)s1 [Example 65, 5-{5-[(methylamino)methyl]-2-thienyl}-3-(1-{[3-(4-morpholinyl)propyl]sulfonyl}-4-piperidinyl)-1H-indole-7-carboxamide]
CCNCc1ccc(-c2cc(C(N)=O)c3[nH]cc(C4CCN(S(=O)(=O)CCCN5CCOCC5)CC4)c3c2)s1 [Example 66, 5-{5-[(ethylamino)methyl]-2-thienyl}-3-(1-{[3-(4-morpholinyl)propyl]sulfonyl}-4-piperidinyl)-1H-indole-7-carboxamide]
CC(C)N(CCCS(=O)(=O)N1CCC(c2c[nH]c3c(C(N)=O)cc(-c4ccccc4)cc23)CC1)C(C)C [Example 67, 3-[1-({3-[bis(1-methylethyl)amino]propyl}sulfonyl)-4-piperidinyl]-5-phenyl-1H-indole-7-carboxamide]
COCCS(=O)(=O)N1CCC(c2c[nH]c3c(C(N)=O)cc(-c4ccccc4)cc23)CC1 [Example 68, 3-(1-{[2-(methyloxy)ethyl]sulfonyl}-4-piperidinyl)-5-phenyl-1 indole-7-carboxamide]
C[C@@H]1CC[C@@H](C)N1CCCS(=O)(=O)N1CCC(c2c[nH]c3c(C(N)=O)cc(-c4ccccc4)cc23)CC1 [Example 69, 3-[1-({3-[(2R,5R)-2,5-dimethyl-1-pyrrolidinyl]propyl}sulfonyl)-4-piperidinyl]-5-phenyl-1H-indole-7-carboxamide]
CN1CCN(CCCS(=O)(=O)N2CCC(c3c[nH]c4c(C(N)=O)cc(-c5cccs5)cc34)CC2)CC1 [Example 70, 3-(1-{[3-(4-methyl-1-piperazinyl)propyl]sulfonyl}-4-piperidinyl)-5-(2-thienyl)-1H-indole-7-carboxamide]
NC(=O)c1cc(-c2ccsc2)cc2c(C3CCN(S(=O)(=O)CCCN4CCC(O)CC4)CC3)c[nH]c12 [Example 71, 3-(1-{[3-(4-hydroxy-1-piperidinyl)propyl]sulfonyl}-4-piperidinyl)-5-(3-thienyl)-1H-indole-7-carboxamide]
